Reference: publication PMC12250347, “Calcium-dependent pathway as a primary cause of hypoxic RGC damage in monkey retinal explants” (PLOS One, 2025)

Legend:
[1] = biological target: T1, human erythrocyte calpain 1 (Homo sapiens, UniProt P07384); test: Calpain-Glo Protease Assay; format: biochemical; settings: 5 mM CaCl2, 10 min, room temperature; mean of two experiments
T1 construct: human erythrocyte calpain 1 (MilliporeSigma); purchased MilliporeSigma; host or cells: human erythrocytes
T1 sequence (P07384 1-714): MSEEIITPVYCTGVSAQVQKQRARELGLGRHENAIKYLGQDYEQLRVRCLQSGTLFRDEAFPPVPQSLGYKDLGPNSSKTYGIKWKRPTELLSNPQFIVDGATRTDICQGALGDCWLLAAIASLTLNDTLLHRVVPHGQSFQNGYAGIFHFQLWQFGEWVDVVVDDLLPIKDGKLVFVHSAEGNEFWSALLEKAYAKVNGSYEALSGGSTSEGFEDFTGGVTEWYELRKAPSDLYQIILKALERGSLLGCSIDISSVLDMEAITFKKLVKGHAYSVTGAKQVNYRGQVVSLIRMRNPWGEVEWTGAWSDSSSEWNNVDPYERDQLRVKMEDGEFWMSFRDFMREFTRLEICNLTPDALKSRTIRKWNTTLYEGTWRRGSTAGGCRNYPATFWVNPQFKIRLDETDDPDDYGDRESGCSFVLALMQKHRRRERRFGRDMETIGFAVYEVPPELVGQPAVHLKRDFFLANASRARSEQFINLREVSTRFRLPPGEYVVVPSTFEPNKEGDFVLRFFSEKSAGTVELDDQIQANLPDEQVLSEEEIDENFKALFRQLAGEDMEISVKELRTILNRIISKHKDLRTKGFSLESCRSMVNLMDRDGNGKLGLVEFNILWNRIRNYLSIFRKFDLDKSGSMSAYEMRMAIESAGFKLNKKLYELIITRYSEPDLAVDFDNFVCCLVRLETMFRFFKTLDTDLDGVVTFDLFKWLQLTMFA
T1 sequence (P04632 1-268 partner): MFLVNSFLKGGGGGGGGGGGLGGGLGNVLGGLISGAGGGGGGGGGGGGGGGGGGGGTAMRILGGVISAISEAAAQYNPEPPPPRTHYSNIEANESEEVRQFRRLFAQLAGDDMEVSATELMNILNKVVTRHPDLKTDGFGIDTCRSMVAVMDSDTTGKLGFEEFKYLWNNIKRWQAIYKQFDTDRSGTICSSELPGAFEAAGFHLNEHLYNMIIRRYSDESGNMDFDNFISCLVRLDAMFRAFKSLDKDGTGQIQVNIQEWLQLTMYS
Protocol: (§1) For measurement of inhibitory activities against calpains in vitro, Calpain-Glo Protease Assay (Promega; Madison, WI, USA) was performed using human erythrocyte calpain 1 (MilliporeSigma) and purified porcine calpain 2. Briefly, 24 µL of each calpain diluted with 20 mM Tris-HCl (pH 7.4), 1 µL of each inhibitor, and 25 µL of reaction buffer including CaCl2 in a 96-well plate was incubated for 10 min at room temperature. The final concentration of CaCl2 in the reaction solution was 5 mM. The luminescence was measured using a microplate reader (GloMax Discover System; Promega). IC50 values from two independent experiments were averaged.

[2] = tested on: purified porcine calpain 2; test: Calpain-Glo Protease Assay; format: biochemical; settings: 5 mM CaCl2, 10 min, room temperature; mean of two experiments
From the text: The porcine kidney was obtained from DART Co., Ltd. as part of a program aimed at the effective utilization of livestock by-products in Hokkaido, Japan. The procurement process followed ethical guidelines from Livestock Industry Bureau MAFF-J (ministry of agriculture, forestry and fisheries of Japan) for farm animal use, ensuring compliance with relevant regulations. Two porcine kidneys were rapidly frozen after removal, trimmed free of excess tissue or renal pelvis, and cut into small pieces (approximately 2 × 2 cm) before they thawed. About 250 g of these pieces were homogenized in 1200 mL of ice-cold 20 mM Tris-HCl (pH 8.0) with 5 mM ethylenediaminetetraacetic acid (EDTA), 0.1% 2-mercaptoethanol (2-ME), 0.1 mg/mL Pefabloc SC (MilliporeSigma, Burlington, MA, USA), 40 µg/mL bestatin, and 4 µg/mL pepstatin in a Waring blender HGBSS (Waring; Stamford, CT, USA) at 19,000 rpm using several bursts of 10 sec each with 20 sec cooling periods between each burst. The homogenate was centrifuged at 25,000 × g for 15 min at 4°C, and the supernatant was filtered through glass wool and a 5 µm filter (Merck) to remove floating lipids. The purification procedure was performed according to the method of Thompson and Goll with some minor modifications: the DEAE-cellulose and the DEAE-TSK ToyoPearl 650S columns were substituted with DEAE sepharose fast flow (Merck) and TSKgel DEAE-5PW (30) (Tosoh; Tokyo, Japan) columns, respectively. After purification, calpain-2 was dialyzed, and glycerol was added for freeze-thaw protection. The final buffer formulation was 20 mM imidazole, 5 mM 2-ME, 1 mM EDTA, 1 mM EGTA, and 20% glycerol.
as §1

| IC50 [1] [µM] | IC50 Porcine Calpain 2 [2] | Structure (SMILES) | IC50 [2] [µM] |
| --- | --- | --- | --- |
| 15.9 | No effect | CC(C)(F)C[C@H](N[C@@H](c1ccc(-c2ccc(S(C)(=O)=O)cc2)cc1)C(F)(F)F)C(=O)NC1(C#N)CC1 [Odanacatib] |  |
| 81 |  | CCc1ccccc1NC(=O)CSC(=O)NNC(=O)[C@H](Cc1c[nH]c2ccccc12)NC(=O)OC(C)(C)C [SID26681509] | 93.2 |

| Structure (SMILES) | IC50 [1] [µM] | IC50 Porcine Calpain 2 [2] | IC50 [2] [µM] |
| --- | --- | --- | --- |
| COCCOCCOC(=O)N[C@@H](CC(C)C)C(=O)N[C@@H](Cc1ccccc1)C(=O)C(=O)NC1CC1 [SNJ-1945] | 0.077 |  | 0.072 |
